Blank lines part the entries; values can stand above or below the compound they belong to.
SMILES: Nc1ccc(S(=O)(=O)Nc2ccc(Cl)cc2)cc1
solubility (mole fraction) (in n-octanol, 290.15 K): 0.00126
solubility (mole fraction) (in n-octanol, 298.15 K): 0.00132
solubility (mole fraction) (in n-octanol, 303.15 K): 0.00145
solubility (mole fraction) (in n-octanol, 310.15 K): 0.00153
solubility (mole fraction) (in n-octanol, 315.15 K): 0.00167
solubility (mole fraction) (in water, 293.15 K): 9.2e-07
solubility (mole fraction) (in water, 298.15 K): 1.19e-06
solubility (mole fraction) (in water, 303.15 K): 1.51e-06
solubility (mole fraction) (in water, 310.15 K): 2.02e-06
solubility (mole fraction) (in water, 315.15 K): 2.84e-06

SMILES: Cc1cc(N)ccc1S(=O)(=O)Nc1ccc(Cl)cc1
solubility (mole fraction) (in n-octanol, 293.15 K): 0.00319
solubility (mole fraction) (in n-octanol, 298.15 K): 0.00356
solubility (mole fraction) (in n-octanol, 303.15 K): 0.00393
solubility (mole fraction) (in n-octanol, 310.15 K): 0.00465
solubility (mole fraction) (in n-octanol, 315.15 K): 0.00519
solubility (mole fraction) (in water, 293.15 K): 4.79e-07
solubility (mole fraction) (in water, 298.15 K): 6.71e-07
solubility (mole fraction) (in water, 303.15 K): 9.04e-07
solubility (mole fraction) (in water, 310.15 K): 1.35e-06
solubility (mole fraction) (in water, 315.15 K): 1.68e-06

SMILES: Nc1ccc(S(=O)(=O)Nc2ccc(Cl)cc2)c(Cl)c1
solubility (mole fraction) (in n-octanol, 293.15 K): 0.0021
solubility (mole fraction) (in n-octanol, 298.15 K): 0.00248
solubility (mole fraction) (in n-octanol, 303.15 K): 0.00287
solubility (mole fraction) (in n-octanol, 310.15 K): 0.00349
solubility (mole fraction) (in n-octanol, 315.15 K): 0.00391
solubility (mole fraction) (in water, 293.15 K): 4.05e-07
solubility (mole fraction) (in water, 298.15 K): 4.72e-07
solubility (mole fraction) (in water, 303.15 K): 5.62e-07
solubility (mole fraction) (in water, 310.15 K): 6.86e-07
solubility (mole fraction) (in water, 315.15 K): 8.12e-07

SMILES: Nc1ccc(S(=O)(=O)Nc2ccc(Cl)c(Cl)c2)cc1
solubility (mole fraction) (in n-octanol, 290.15 K): 0.000317
solubility (mole fraction) (in n-octanol, 298.15 K): 0.000356
solubility (mole fraction) (in n-octanol, 303.15 K): 0.000422
solubility (mole fraction) (in n-octanol, 310.15 K): 0.000501
solubility (mole fraction) (in n-octanol, 315.15 K): 0.000617
solubility (mole fraction) (in water, 293.15 K): 1.67e-07
solubility (mole fraction) (in water, 298.15 K): 2.05e-07
solubility (mole fraction) (in water, 303.15 K): 2.48e-07
solubility (mole fraction) (in water, 310.15 K): 3.26e-07
solubility (mole fraction) (in water, 315.15 K): 3.89e-07

SMILES: Nc1ccc(S(=O)(=O)Nc2ccccc2Cl)c(Cl)c1
solubility (mole fraction) (in n-octanol, 293.15 K): 5.85e-05
solubility (mole fraction) (in n-octanol, 298.15 K): 7.4e-05
solubility (mole fraction) (in n-octanol, 303.15 K): 9.37e-05
solubility (mole fraction) (in n-octanol, 310.15 K): 0.000128
solubility (mole fraction) (in n-octanol, 315.15 K): 0.000164
solubility (mole fraction) (in water, 293.15 K): 1.05e-07
solubility (mole fraction) (in water, 298.15 K): 1.19e-07
solubility (mole fraction) (in water, 303.15 K): 1.35e-07
solubility (mole fraction) (in water, 310.15 K): 1.55e-07
solubility (mole fraction) (in water, 315.15 K): 1.75e-07

SMILES: Nc1ccc(S(=O)(=O)Nc2cc(Cl)c(Cl)cc2Cl)cc1
solubility (mole fraction) (in n-octanol, 293.15 K): 0.00097
solubility (mole fraction) (in n-octanol, 298.15 K): 0.00109
solubility (mole fraction) (in n-octanol, 303.15 K): 0.00118
solubility (mole fraction) (in n-octanol, 310.15 K): 0.00146
solubility (mole fraction) (in n-octanol, 315.15 K): 0.00179
solubility (mole fraction) (in water, 293.15 K): 2.22e-07
solubility (mole fraction) (in water, 298.15 K): 2.51e-07
solubility (mole fraction) (in water, 303.15 K): 2.74e-07
solubility (mole fraction) (in water, 310.15 K): 3.07e-07
solubility (mole fraction) (in water, 315.15 K): 3.33e-07

SMILES: Cc1cc(N)ccc1S(=O)(=O)Nc1ccccc1Cl
solubility (mole fraction) (in n-octanol, 293.15 K): 8.97e-05
solubility (mole fraction) (in n-octanol, 298.15 K): 0.000115
solubility (mole fraction) (in n-octanol, 303.15 K): 0.000143
solubility (mole fraction) (in n-octanol, 310.15 K): 0.000192
solubility (mole fraction) (in n-octanol, 315.15 K): 0.000242
solubility (mole fraction) (in water, 293.15 K): 1.39e-07
solubility (mole fraction) (in water, 298.15 K): 1.57e-07
solubility (mole fraction) (in water, 303.15 K): 1.74e-07
solubility (mole fraction) (in water, 310.15 K): 2.07e-07
solubility (mole fraction) (in water, 315.15 K): 2.32e-07

SMILES: Cc1cc(N)ccc1S(=O)(=O)Nc1ccccc1[N+](=O)[O-]
solubility (mole fraction) (in n-octanol, 293.15 K): 0.000152
solubility (mole fraction) (in n-octanol, 298.15 K): 0.000198
solubility (mole fraction) (in n-octanol, 303.15 K): 0.000247
solubility (mole fraction) (in n-octanol, 310.15 K): 0.000345
solubility (mole fraction) (in n-octanol, 315.15 K): 0.000449
solubility (mole fraction) (in water, 293.15 K): 4.41e-07
solubility (mole fraction) (in water, 298.15 K): 5.17e-07
solubility (mole fraction) (in water, 303.15 K): 5.79e-07
solubility (mole fraction) (in water, 310.15 K): 8.02e-07
solubility (mole fraction) (in water, 315.15 K): 9.35e-07

The next lines start with the values.

solubility (mole fraction) (in n-octanol, 293.15 K): 0.00153
solubility (mole fraction) (in n-octanol, 298.15 K): 0.00188
solubility (mole fraction) (in n-octanol, 303.15 K): 0.00221
solubility (mole fraction) (in n-octanol, 310.15 K): 0.00273
solubility (mole fraction) (in n-octanol, 315.15 K): 0.00323
solubility (mole fraction) (in water, 295.15 K): 6.16e-07
solubility (mole fraction) (in water, 298.15 K): 7.72e-07
solubility (mole fraction) (in water, 303.15 K): 1.03e-06
solubility (mole fraction) (in water, 310.15 K): 1.51e-06
solubility (mole fraction) (in water, 315.15 K): 2.12e-06
SMILES: Cc1ccc(Cl)cc1NS(=O)(=O)c1ccc(N)cc1

solubility (mole fraction) (in n-octanol, 293.15 K): 0.000491
solubility (mole fraction) (in n-octanol, 298.15 K): 0.000552
solubility (mole fraction) (in n-octanol, 303.15 K): 0.00064
solubility (mole fraction) (in n-octanol, 310.15 K): 0.000801
solubility (mole fraction) (in n-octanol, 315.15 K): 0.000897
solubility (mole fraction) (in water, 293.15 K): 1.26e-07
solubility (mole fraction) (in water, 298.15 K): 1.53e-07
solubility (mole fraction) (in water, 303.15 K): 1.79e-07
solubility (mole fraction) (in water, 310.15 K): 2.25e-07
solubility (mole fraction) (in water, 315.15 K): 2.56e-07
SMILES: Cc1ccc(NS(=O)(=O)c2ccc(N)cc2)cc1Cl

solubility (mole fraction) (in n-octanol, 293.15 K): 0.00426
solubility (mole fraction) (in n-octanol, 298.15 K): 0.00489
solubility (mole fraction) (in n-octanol, 303.15 K): 0.00556
solubility (mole fraction) (in n-octanol, 310.15 K): 0.00675
solubility (mole fraction) (in n-octanol, 315.15 K): 0.00786
solubility (mole fraction) (in water, 293.15 K): 1.25e-06
solubility (mole fraction) (in water, 298.15 K): 1.61e-06
solubility (mole fraction) (in water, 303.15 K): 2.11e-06
solubility (mole fraction) (in water, 310.15 K): 3.08e-06
solubility (mole fraction) (in water, 315.15 K): 3.74e-06
SMILES: Cc1cc(Cl)ccc1NS(=O)(=O)c1ccc(N)cc1

solubility (mole fraction) (in n-octanol, 290.15 K): 0.000347
solubility (mole fraction) (in n-octanol, 298.15 K): 0.000412
solubility (mole fraction) (in n-octanol, 303.15 K): 0.000529
solubility (mole fraction) (in n-octanol, 310.15 K): 0.000667
solubility (mole fraction) (in n-octanol, 315.15 K): 0.00089
solubility (mole fraction) (in water, 293.15 K): 6.12e-07
solubility (mole fraction) (in water, 298.15 K): 7.25e-07
solubility (mole fraction) (in water, 303.15 K): 8.98e-07
solubility (mole fraction) (in water, 310.15 K): 1.03e-06
solubility (mole fraction) (in water, 315.15 K): 1.24e-06
SMILES: Nc1ccc(S(=O)(=O)Nc2cc(Cl)ccc2Cl)cc1

solubility (mole fraction) (in n-octanol, 293.15 K): 0.00133
solubility (mole fraction) (in n-octanol, 298.15 K): 0.00158
solubility (mole fraction) (in n-octanol, 303.15 K): 0.0018
solubility (mole fraction) (in n-octanol, 310.15 K): 0.00221
solubility (mole fraction) (in n-octanol, 315.15 K): 0.00259
solubility (mole fraction) (in water, 295.15 K): 7.06e-07
solubility (mole fraction) (in water, 298.15 K): 7.65e-07
solubility (mole fraction) (in water, 303.15 K): 9.36e-07
solubility (mole fraction) (in water, 310.15 K): 1.18e-06
solubility (mole fraction) (in water, 315.15 K): 1.45e-06
SMILES: Cc1ccc(NS(=O)(=O)c2ccc(N)cc2)c(Cl)c1

— BigSolDB 2.1
